Laboratory results reported in the NIST ThermoML archive (doi:10.1021/je1002048).
Numbers after ± are expanded uncertainties.

What was measured:
[1] = Liquid; for Normal boiling temperature: Ebulliometric method (Recirculating still)
[2] = excess molar enthalpy (molar enthalpy of mixing); xn = mol fraction of the nth substance listed; conditions: 303.15 K, 101 kPa, Liquid, Calvet calorimetry

Row | SMILES | mass density ([1]; 298.15 K, 101.33 kPa, Pycnometric method) [kg/m3] | Normal boiling temperature [1] [°C] | excess molar enthalpy ([2]; x2 = 0.032) [kcal/mol] | excess molar enthalpy ([2]; x2 = 0.082) [kcal/mol] | excess molar enthalpy ([2]; x2 = 0.127) [kcal/mol] | excess molar enthalpy ([2]; x2 = 0.192) [kcal/mol] | excess molar enthalpy ([2]; x2 = 0.251) [kcal/mol] | excess molar enthalpy ([2]; x2 = 0.351) [kcal/mol] | excess molar enthalpy ([2]; x2 = 0.447) [kcal/mol] | excess molar enthalpy ([2]; x2 = 0.502) [kcal/mol] | excess molar enthalpy ([2]; x2 = 0.572) [kcal/mol] | excess molar enthalpy ([2]; x2 = 0.653) [kcal/mol] | excess molar enthalpy ([2]; x2 = 0.734) [kcal/mol] | excess molar enthalpy ([2]; x2 = 0.874) [kcal/mol]
1 | c1ccncc1 [pyridine] | 980.8 ± 1 | 116 ± 0.1 |  |  |  |  |  |  |  |  |  |  |  | 
2 | CCO [ethanol] |  | 78.2 ± 0.1 |  |  |  |  |  |  |  |  |  |  |  | 
3 | c1ccncc1 [pyridine] + CCO |  |  | -0.000359 ± 0.000191 | -0.00153 ± 0.000191 | -0.00308 ± 0.000239 | -0.00545 ± 0.000311 | -0.00827 ± 0.000406 | -0.0122 ± 0.00055 | -0.0172 ± 0.000741 | -0.0185 ± 0.000789 | -0.0189 ± 0.000813 | -0.0152 ± 0.000669 | -0.0126 ± 0.000574 | -0.00598 ± 0.000311
